Values quoted from earlier work as cited in patent publication US20040166069A1, “Boosting Tyrosinase Inhibiting Activity of Skin Whitening and Sunscreen Compositions” (priority 2003, published 2004).

Tested on: de-pigmentation
Details: relative to hydroquinone

| Structure (SMILES) | quantity required compared to the quantity of hydroquinone used to achieve a similar effect |
| --- | --- |
| OC[C@H]1O[C@@H](Oc2ccc(O)cc2)[C@H](O)[C@@H](O)[C@@H]1O [arbutin] | over 100 times |
| O=C1O[C@H]([C@@H](O)CO)C(O)=C1O [ascorbic acid] | 17 times |
